# Experimental data reported in patent publication US10316035B2, “Triazolopyridine inhibitors of myeloperoxidase” (BRISTOL-MYERS SQUIBB COMPANY, priority 2015, dated 2019).
# pIC50: −log10 of the molar value. Structures can show the parent of a compound that is named as a salt.
# Molecular target: T1, myeloperoxidase (MPO) (Homo sapiens, UniProt P05164)
# T1 sequence (P05164 49-745): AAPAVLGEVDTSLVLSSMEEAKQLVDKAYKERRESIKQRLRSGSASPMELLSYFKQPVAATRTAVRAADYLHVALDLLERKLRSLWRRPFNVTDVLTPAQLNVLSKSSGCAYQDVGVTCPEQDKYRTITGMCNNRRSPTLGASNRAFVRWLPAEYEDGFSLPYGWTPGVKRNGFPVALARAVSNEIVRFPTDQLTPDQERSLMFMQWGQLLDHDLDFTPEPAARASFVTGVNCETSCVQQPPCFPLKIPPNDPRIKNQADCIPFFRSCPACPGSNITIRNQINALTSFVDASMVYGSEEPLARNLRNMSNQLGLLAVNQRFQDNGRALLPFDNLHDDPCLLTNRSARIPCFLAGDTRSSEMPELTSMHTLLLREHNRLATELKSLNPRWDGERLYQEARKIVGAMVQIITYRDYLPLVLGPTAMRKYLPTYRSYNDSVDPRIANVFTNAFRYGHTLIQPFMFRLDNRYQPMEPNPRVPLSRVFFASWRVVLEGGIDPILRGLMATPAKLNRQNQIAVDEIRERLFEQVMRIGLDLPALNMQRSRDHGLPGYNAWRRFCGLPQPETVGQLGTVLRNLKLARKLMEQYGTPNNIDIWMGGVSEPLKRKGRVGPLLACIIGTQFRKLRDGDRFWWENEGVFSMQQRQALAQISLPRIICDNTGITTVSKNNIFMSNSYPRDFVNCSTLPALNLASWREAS
# Test: MPO peroxidation assay (Amplex Red assay)
# Type: biochemical
# Conditions: not given
# Outline: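 MPO (200 pM) with 40 nM H2O2 was preincubated 10 min at room temperature with inhibitor in 100 mM KPi pH 7.4. A mix of Amplex Red (200 μM) and H2O2 (10 mM) was then added and resorufin fluorescence read kinetically for 15 min. Slopes over 180–540 s gave % inhibition and IC50 via a four-parameter Hill fit.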
row,pIC50,SMILES
1,6.00 to 7.00,"CS(=O)(=O)c1ccccc1COc1cc(N)nc2[nH]nnc12 [Example 232, 7-((2-(Methylsulfonyl)benzyl)oxy)-3H-[1,2,3]triazolo[4,5-b]pyridin-5-amine]"
2,7.00 to 9.00,"Nc1cc(OCc2ccccc2Cl)c2nn[nH]c2n1 [Example 12, 7-(2-Chlorobenzyloxy)-3H-[1,2,3]triazolo[4,5-b]pyridin-5-amine]"
3,7.00 to 9.00,"Nc1cc(OCc2cc(-c3cccc(F)c3)ccc2Cl)c2nn[nH]c2n1 [Example 70, 7-((4-Chloro-3′-fluorobiphenyl-3-yl)methoxy)-3H-[1,2,3]triazolo[4,5-b]pyridin-5-amine]"

# Same assay, conditions: MPO peroxidation, potency range class; read-out: Amplex Red IC50
row,SMILES,pIC50
1,"Nc1cc(OCc2c(F)cc(Br)cc2F)c2nn[nH]c2n1 [Example 233, 7-((4-Bromo-2,6-difluorobenzyl)oxy)-3H-[1,2,3]triazolo[4,5-b]pyridin-5-amine, TFA]",7.00 to 9.00
2,"N#Cc1cc(-c2ccc(CO)nc2)ccc1COc1cc(N)nc2[nH]nnc12 [Example 313, 2-(((5-amino-3H-[1,2,3]triazolo[4,5-b]pyridin-7-yl)oxy)methyl)-5-(6-(hydroxymethyl)pyridin-3-yl)benzonitrile]",7.00 to 9.00
3,"COC(=O)c1ccc(Cl)c(COc2cc(N)nc3[nH]nnc23)c1 [Example 171, Methyl 3-((5-amino-3H-[1,2,3]triazolo[4,5-b]pyridin-7-yloxy)methyl)-4-chlorobenzoate]",7.00 to 9.00
4,"N#Cc1ccc(-c2cccc(COc3cc(N)nc4[nH]nnc34)c2)cc1 [Example 101, 3′-((5-Amino-3H-[1,2,3]triazolo[4,5-b]pyridin-7-yloxy)methyl)biphenyl-4-carbonitrile]",7.00 to 9.00
5,"Cn1nc(C(F)(F)F)cc1-c1cccc(COc2cc(N)nc3[nH]nnc23)c1 [Example 79, 7-(3-(1-Methyl-3-(trifluoromethyl)-1H-pyrazol-5-yl)benzyloxy)-3H-[1,2,3]triazolo[4,5-b]pyridin-5-amine]",6.00 to 7.00
6,"CN(C(=O)c1ccc(F)c(COc2cc(N)nc3[nH]nnc23)c1)c1ccccc1 [Example 159, 3-((5-amino-3H-[1,2,3]triazolo[4,5-b]pyridin-7-yloxy)methyl)-4-fluoro-N-methyl-N-phenylbenzamide]",7.00 to 9.00
7,"Cc1ccn(-c2cccc(COc3cc(N)nc4[nH]nnc34)c2)n1 [Example 85, 7-(3-(3-Methyl-1H-pyrazol-1-yl)benzyloxy)-3H-[1,2,3]triazolo[4,5-b]pyridin-5-amine]",6.00 to 7.00
8,"CN(C(=O)c1ccc(COc2cc(N)nc3[nH]nnc23)c(Cl)c1)c1ccccc1 [Example 203, 4-((5-amino-3H-[1,2,3]triazolo[4,5-b]pyridin-7-yloxy)methyl)-3-chloro-N-methyl-N-phenylbenzamide]",7.00 to 9.00
9,"CC(NC(=O)c1ccc(COc2cc(N)nc3[nH]nnc23)c(Cl)c1)c1ccccc1 (stereo not shown) [Example 201, 4-((5-amino-3H-[1,2,3]triazolo[4,5-b]pyridin-7-yloxy)methyl)-3-chloro-N-(1-phenylethyl)benzamide]",7.00 to 9.00
10,"COc1ccc(-c2ccc(COc3cc(N)nc4[nH]nnc34)cc2)cc1 [Example 122, 7-((4′-Methoxybiphenyl-4-yl)methoxy)-3H-[1,2,3]triazolo[4,5-b]pyridin-5-amine]",7.00 to 9.00
11,"Nc1cc(OCc2cccc(OC(F)(F)F)c2)c2nn[nH]c2n1 [Example 13, 7-(3-(Trifluoromethoxy)benzyloxy)-3H-[1,2,3]triazolo[4,5-b]pyridin-5-amine]",7.00 to 9.00
12,"CC(NC(=O)c1ccc(F)c(COc2cc(N)nc3[nH]nnc23)c1)c1ccccc1 (stereo not shown) [Example 157, 3-((5-amino-3H-[1,2,3]triazolo[4,5-b]pyridin-7-yloxy)methyl)-4-fluoro-N-(1-phenylethyl)benzamide]",7.00 to 9.00
13,Nc1cc(OCc2ccc(C(=O)N3CCCCC3c3ccccc3)cc2Cl)c2nn[nH]c2n1 (stereo not shown) [Example 206],6.00 to 7.00
14,"Nc1cc(OCc2ccc(OC(F)F)cc2)c2nn[nH]c2n1 [Example 17, 7-(4-(Difluoromethoxy)benzyloxy)-3H-[1,2,3]triazolo[4,5-b]pyridin-5-amine]",6.00 to 7.00
15,"CCC(Oc1cc(N)nc2[nH]nnc12)c1ccc(Cl)c(Cl)c1 (stereo not shown) [Example 145, 7-(1-(3,4-Dichlorophenyl)propoxy)-3H-[1,2,3]triazolo[4,5-b]pyridin-5-amine]",6.00 to 7.00
16,"N#Cc1cc(Br)ccc1COc1cc(N)nc2[nH]nnc12 [Example 245, 2-(((5-Amino-3H-[1,2,3]triazolo[4,5-b]pyridin-7-yl)oxy)methyl)-5-bromobenzonitrile]",7.00 to 9.00
17,"Nc1cc(OCc2ccccc2-n2cncn2)c2nn[nH]c2n1 [Example 253, 7-((2-(1H-1,2,4-Triazol-1-yl)benzyl)oxy)-3H-[1,2,3]triazolo[4,5-b]pyridin-5-amine]",6.00 to 7.00

# Continued, values first:
row,pIC50,SMILES
1,6.00 to 7.00,"COc1cccc(Cl)c1-c1cccc(COc2cc(N)nc3[nH]nnc23)c1 [Example 124, 7-((2′-Chloro-6′-methoxybiphenyl-3-yl)methoxy)-3H-[1,2,3]triazolo[4,5-b]pyridin-5-amine]"
2,6.00 to 7.00,"CS(=O)(=O)c1ccc(COc2cc(N)nc3[nH]nnc23)c([N+](=O)[O-])c1 [Example 250, 7-((4-(methylsulfonyl)-2-nitrobenzyl)oxy)-3H-[1,2,3]triazolo[4,5-b]pyridin-5-amine]"
3,6.00 to 7.00,"COc1cccc(-c2ccc(COc3cc(N)nc4[nH]nnc34)cc2)c1 [Example 112, 7-((3′-Methoxybiphenyl-4-yl)methoxy)-3H-[1,2,3]triazolo[4,5-b]pyridin-5-amine]"
4,7.00 to 9.00,"CC1CN(c2ccc(-c3ccc(COc4cc(N)nc5[nH]nnc45)c(C#N)c3)cn2)CC(C)N1 (stereo not shown) [Example 350, 2-(((5-Amino-3H-[1,2,3]triazolo[4,5-b]pyridin-7-yl)oxy)methyl)-5-(6-(3,5-dimethylpiperazin-1-yl)pyridin-3-yl)benzonitrile]"
5,7.00 to 9.00,"COc1ccc(-c2cccc(COc3cc(N)nc4[nH]nnc34)c2)cc1F [Example 105, 7-((3′-Fluoro-4′-methoxybiphenyl-3-yl)methoxy)-3H-[1,2,3]triazolo[4,5-b]pyridin-5-amine]"
6,7.00 to 9.00,"CCOc1ccc(Cl)cc1COc1cc(N)nc2[nH]nnc12 [Example 88, 7-(5-Chloro-2-ethoxybenzyloxy)-3H-[1,2,3]triazolo[4,5-b]pyridin-5-amine]"
7,7.00 to 9.00,"N#Cc1cc(-c2ccc(O)nc2)ccc1COc1cc(N)nc2[nH]nnc12 [Example 312, 2-(((5-amino-3H-[1,2,3]triazolo[4,5-b]pyridin-7-yl)oxy)methyl)-5-(6-hydroxypyridin-3-yl)benzonitrile]"
8,7.00 to 9.00,"COc1cc(-c2ccc(COc3cc(N)nc4[nH]nnc34)c(OC(F)(F)F)c2)c(F)cn1 [Example 309, 7-((4-(5-fluoro-2-methoxypyridin-4-yl)-2-(trifluoromethoxy)benzyl)oxy)-3H-[1,2,3] triazolo[4,5-b]pyridin-5-amine]"
9,6.00 to 7.00,"Nc1cc(OC(c2ccccc2)C(F)(F)F)c2nn[nH]c2n1 (stereo not shown) [Example 126, 7-(2,2,2-Trifluoro-1-phenylethoxy)-3H-[1,2,3]triazolo[4,5-b]pyridin-5-amine]"
10,6.00 to 7.00,"Nc1cc(OCc2cc(C(=O)N3CCC[C@H]3CO)ccc2Cl)c2nn[nH]c2n1 [Example 179, (S)-(3-((5-amino-3H-[1,2,3]triazolo[4,5-b]pyridin-7-yloxy)methyl)-4-chlorophenyl)(2-(hydroxymethyl)pyrrolidin-1-yl)methanone]"
11,7.00 to 9.00,"CS(=O)(=O)c1cc(Br)ccc1COc1cc(N)nc2[nH]nnc12 [Example 231, 7-((4-Bromo-2-(methylsulfonyl)benzyl)oxy)-3H-[1,2,3]triazolo[4,5-b]pyridin-5-amine, TFA]"
12,6.00 to 7.00,"Nc1cc(OCc2ccc(-n3ccccc3=O)cc2OC(F)(F)F)c2nn[nH]c2n1 [Example 256, 1-(4-(((5-amino-3H-[1,2,3]triazolo[4,5-b]pyridin-7-yl)oxy)methyl)-3-(trifluoromethoxy)phenyl) pyridin-2(1H)-one]"
13,7.00 to 9.00,Nc1cc(OCc2ccc(-n3cccn3)cc2OC(F)(F)F)c2nn[nH]c2n1 [Example 257]
14,7.00 to 9.00,"CN1CCN(c2ccc(-c3ccc(COc4cc(N)nc5[nH]nnc45)c(C#N)c3)cn2)CC1 [Example 319, 2-(((5-amino-3H-[1,2,3]triazolo[4,5-b]pyridin-7-yl)oxy)methyl)-5-(6-(4-methylpiperazin-1-yl)pyridin-3-yl)benzonitrile]"
15,7.00 to 9.00,"Nc1cc(OCc2c(Cl)cccc2OC(F)(F)F)c2nn[nH]c2n1 [Example 31, 7-(2-Chloro-6-(trifluoromethoxy)benzyloxy)-3H-[1,2,3]triazolo[4,5-b]pyridin-5-amine]"
16,6.00 to 7.00,"COc1c(COc2cc(N)nc3[nH]nnc23)cccc1-c1cccc(F)c1 [Example 67, 7-((3′-Fluoro-2-methoxybiphenyl-3-yl)methoxy)-3H-[1,2,3]triazolo[4,5-b]pyridin-5-amine]"
17,7.00 to 9.00,"Nc1cc(OCc2c(F)cccc2Cl)c2nn[nH]c2n1 [Example 237, 7-((2-Chloro-6-fluorobenzyl)oxy)-3H-[1,2,3]triazolo[4,5-b]pyridin-5-amine]"
